Literature values as cited in patent publication US20240164409A1, “A METHOD OF REDUCING METHANE PRODUCTION IN A RUMINANT ANIMAL” (DIT AgTech Limited, priority 2021, published 2024).
Converted amounts (≈) assume the structure as drawn.

Conditions: for Characterised as: water solubility in words

| SMILES | Characterised as | Solubility in water [µg/mL] |
| --- | --- | --- |
| O=[N+]([O-])OCCCO [3-nitrooxypropanol] | Soluble | – |
| BrC(Br)Br [Bromoform] | Sparingly soluble | 3200 (≈ 12.7 mM) |
